Measured values as given in patent US5606037A, “Processes antineoplastic heteronaphthoquinones” (BioChem Pharma Inc., priority 1995, dated 1997).

Key:
MAT-B/ADR = experiment: In vitro cytotoxicity, MAT-B/ADR; format: cell-based; details: read-out: IC50 MAT-B/ADR
Description: (§1) The microculture tetrazolium assay was used to test in vitro cytotoxicity. This assay is described in Plumb, J. A. et al., 1989 Cancer Research 49, 4435-4440, which is herein incorporated by reference. The cytotoxicity of compounds towards tumor cells is measured in vitro using the assay. This assay method is based upon the ability of live, but not dead cells to reduce the yellow water soluble dye 3-(4,5-dimethylthiazol-2-yl)-2,5-diphenyltetrazolium bromide (MTT) to its water insoluble purple formazan product.
(§2) Cells are plated out in 100 μl of culture medium in the microtiter plates at a density of around 1,500-4,000 cells per well. The plates are incubated overnight to allow the cells to become adherent after which the test compound is added (100 μl of appropriate dilution per well). The cells are incubated with test compound at 37° C. for 48 h after which the compound is replaced with fresh medium. After a further 48 h incubation at 37° C., 50 μl of MTT solution (2 mg/ml) is added to each well. The plates are incubated in the dark for 4 h at 37° C. after which the medium is removed. The MTT formazan product is extracted from the cells by the addition of 200 μl DMSO followed by 50 μl of Sorensen's buffer. The plates are shaken briefly and the absorbance at 570 nm is read using a Molecular Devices UV max plate reader. […]

MCF-7 = experiment: In vitro cytotoxicity, MCF-7; format: cell-based
Description: as §1, §2

MCF-7/ADR = experiment: In vitro cytotoxicity, MCF-7/ADR; format: cell-based
Description: as §1, §2

MAT-B = experiment: In vitro cytotoxicity, MAT-B; format: cell-based; details: read-out: IC50 MAT-B
Description: as §1, §2

[1] = literature; cited from earlier work
[2] = literature; cited from earlier work; remark: listed apart in the source

## COc1cccc2c1C(=O)c1c(O)c3c(c(O)c1C2=O)C[C@@](O)(C(=O)CO)C[C@@H]3O[C@H]1C[C@H](N)[C@H](O)[C@H](C)O1 [Adriamycin, reference compound]
MAT-B/ADR
  IC50: 2500 nM
MCF-7; Homo sapiens, MCF7, read-out: IC50 MCF-7
  IC50: 5 nM
MCF-7/ADR; Homo sapiens, NCI/ADR-RES, read-out: IC50 MCF-7/ADR
  IC50: 6500 nM
MAT-B
  IC50: 4.6 nM

## CC1O[C@H]2CC(=O)O[C@H]2C2=C1C(=O)c1c(O)c3c(c(O)c1C2=O)[C@H]1C[C@@H](O)[C@]3(O)[C@@H](C)O1 (stereo partly shown) [Granaticin]
[1]
  antitumor activity: reported to show antitumor activity

## C[C@@H]1O[C@@H](CC(=O)O)CC2=C1C(=O)c1c(O)cccc1C2=O [nanaomycin A]
[2]
  antibacterial as well as antifungal activity: potent antibacterial as well as antifungal activity

## CC(=O)[C@H]1CC2=C(C(=O)c3ccccc3C2=O)[C@H](OC2C[C@H](NC(=O)C(F)(F)F)[C@H](O)[C@H](C)O2)O1 (stereo partly drawn) [BCH1146, (1'S,1S,3R)-Methyl (5,10-dioxo-1-(2',3',6'-trideoxy-3'-trifluoroacetamido-4'-hydroxy-L-lyxohexopyranose)-3,4,5,10-tetrahydronaphtho [2,3-C]pyran-3-yl) ketone]
MCF-7; breast cancer, MCF-7
  potency relative to adriamycin: less potent than adriamycin
MCF-7/ADR; breast cancer, MCF-7
  effect in sensitive versus adriamycin resistant cell line: nearly as effective in the sensitive and adriamycin resistant cell line

## COC(=O)C1CC2=C(C(=O)c3c(cc4ccccc4c3O)C2=O)C(O[C@H]2C[C@H](NC(=O)C(F)(F)F)[C@H](O)[C@H](C)O2)O1 (stereo partly shown) [pyranoanthraquinone (H)]
[1]
  antitumor activity: found to possess antitumor activity

## CC1OC2OC(=O)OC2C2=C1C(=O)c1c(O)cccc1C2=O (stereo not shown) [kalafungin]
[2]
  antibacterial as well as antifungal activity: potent antibacterial as well as antifungal activity
